Measured values: patent US20210330611A1, “THERAPY FOR NEUROLOGICAL DISEASES/DISORDERS” (priority 2020, published 2021)
Where a name gives a salt, the structure may show the parent alone. Read-outs that look alike come from different tables or passages of the source.

Key:
[1] = tested on: fibrin- and LPS-induced microglia activation; test: cells; type: cell-based, rat
primary rat microglia [2] = tested on: primary rat microglia;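 for Fibrin % cell toxicity: share of dead cells sized under 150 µm2 at 10 µM in fibrin-stimulated microglia HTS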
[3] = tested on: LPS-induced microglia activation; test: Image-based assay of LPS-induced microglia activation (HTS and dose response); type: cell-based, rat
primary rat microglia [4] = tested on: primary rat microglia; remark: listed apart in the source;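 for Fibrin % cell toxicity: share of dead cells sized under 150 µm2 at 10 µM in fibrin-stimulated microglia HTS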
[5] = tested on: fibrin-induced microglia activation; test: Image-based assay of fibrin-induced microglia activation (HTS and dose response); type: cell-based, rat; settings: for inhibition at 10 µM: Rattus norvegicus, Microglia, read-out: Fibrin % inhibition; for Fibrin % inhibition: 10 µM
[6] = Rattus norvegicus, Microglia, read-out: LPS % inhibition
[7] = Rattus norvegicus, Microglia, primary microglia HTS, LPS stimulation, compounds at 10 μM; read-out: LPS % inhibition
[8] = primary microglia HTS, fibrin stimulation, compounds at 10 μM
[9] = Rattus norvegicus, Microglia, primary HTS, 10 μM, LPS-stimulated primary microglia; read-out: LPS % inhibition
[10] = primary HTS, 10 μM, fibrin-stimulated primary microglia
[11] = Rattus norvegicus, Microglia, 48 h, read-out: LPS % inhibition
[12] = quadrant by fibrin and LPS inhibition in HTS of 1907 compounds
[13] = Rattus norvegicus, Microglia, 48 h, primary microglia HTS, LPS stimulation; increased cell size (>800 μm^2) as marker of activation; read-out: LPS % inhibition
[14] = primary microglia HTS, fibrin stimulation, increased cell size (>800 μm^2) as marker of activation

| Compound | Quadrant (FIG. 5b) [1] | Fibrin % cell toxicity (primary rat microglia [2]; rat) [%] | LPS % cell toxicity (primary rat microglia [4]; rat) [%] | inhibition at 10 µM [5] [%] | other results |
| --- | --- | --- | --- | --- | --- |
| Nc1c2c(nc3ccccc13)CCCC2 [Tacrine] | Q4 | 1 | 0 | -2 | inhibition at 10 µM [3, 6]: 5% |
| COc1ccc([C@@H]2Sc3ccccc3N(CCN(C)C)C(=O)[C@@H]2OC(C)=O)cc1 [Diltiazem] |  | 1 | 0 |  | Quadrant (FIG. 5b) ([1]; classification by fibrin and LPS inhibition, HTS at 10 μM): Q4; inhibition at 10 µM [3, 7]: 9%; Fibrin % inhibition [5, 8]: 21% |
| CCOC(=O)[C@H](CCc1ccccc1)N[C@@H](C)C(=O)N1[C@H](C(=O)O)C[C@H]2CCCC[C@@H]21 [Trandolapril] | Q4 | 1 | 0 | -5 | inhibition at 10 µM [3, 6]: 15% |
| COc1cc(N)c(Cl)cc1C(=O)NC1CCN(CCCOc2ccc(F)cc2)CC1OC (stereo not shown) [Cisapride] |  | 0 | 0 |  | Quadrant (FIG. 5b) ([1]; primary HTS, 10 μM): Q4; inhibition at 10 µM [3, 9]: 5%; inhibition at 10 µM [5, 10]: -38% |
| CC1(C)C[C@@H]1C(=O)N/C(=C\CCCCSC[C@H](N)C(=O)O)C(=O)O [Cilastatin] | Q4 | 1 | 0 | -6 | inhibition at 10 µM [3, 6]: 2% |
| O=C(C1CCCCC1)N1CC(=O)N2CCc3ccccc3C2C1 (stereo not shown) [Praziquantel] |  | 1 | 0 |  | Quadrant (FIG. 5b) ([1]; classification by fibrin and LPS inhibition in HTS): Q4; inhibition at 10 µM ([3]; Rattus norvegicus, Microglia, 48 h; read-out: LPS % inhibition): 21%; inhibition at 10 µM ([5]; primary microglia HTS, fibrin stimulation, cell size >800 μm2 as marker of activation): -3% |
| CC(C(=O)O)c1ccc2c(c1)[nH]c1ccc(Cl)cc12 (stereo not shown) [Carprofen] |  | 0 | 0 |  | Quadrant (FIG. 5b) ([1]; primary HTS, 10 μM): Q4; inhibition at 10 µM [3, 9]: 15%; inhibition at 10 µM [5, 10]: -2% |
| CC(=O)Nc1ccccc1 [Acetanilide] | Q4 | 0 | 0 | -31 | inhibition at 10 µM [3, 6]: 9% |
| CCCCOCCOCCOCc1cc2c(cc1CCC)OCO2 [Piperonyl Butoxide] | Q4 | 0 | 0 | 0 | inhibition at 10 µM [3, 11]: 12% |
| Sulfanilate Zinc | Q4 |  |  |  | Fibrin % cell toxicity (primary rat microglia [2]): 0%; LPS % inhibition ([3]; 10 µM): 15%; LPS % cell toxicity (primary rat microglia [4]): 0%; Fibrin % inhibition [5]: −6% |
| CN1CCC[C@H]1c1cccnc1 [Nicotine] | Q4 | 1 | 1 | 2 | inhibition at 10 µM [3, 11]: 21% |
| N=C(N)c1ccc(OCCCCCOc2ccc(C(=N)N)cc2)cc1 [Pentamidine] | Q4 | 1 | 1 | 6 | inhibition at 10 µM [3, 11]: 33% |
| CN(C)[C@@H]1C(O)=C(C(N)=O)C(=O)[C@@]2(O)C(O)=C3C(=O)c4c(O)cccc4[C@@](C)(O)[C@H]3[C@H](O)[C@@H]12 [Oxytetracycline] |  | 1 | 0 |  | Quadrant (FIG. 5b) [1, 12]: Q4; inhibition at 10 µM [3, 13]: 10%; inhibition at 10 µM [5, 14]: 0% |
| Nc1nc(N)c2nc(-c3ccccc3)c(N)nc2n1 [Triamterene] |  | 1 | 0 |  | Quadrant (FIG. 5b) ([1]; HTS of 1907 compounds, quadrant by fibrin and LPS inhibition): Q4; inhibition at 10 µM ([3]; Rattus norvegicus, Microglia, primary microglia HTS, 10 μM, LPS-stimulated, cell size >800 μm^2 as marker of activation; read-out: LPS % inhibition): 24%; inhibition at 10 µM ([5]; primary microglia HTS, 10 μM, fibrin-stimulated, cell size >800 μm^2 as marker of activation): 40% |
| COc1c(N2C[C@@H]3CCCN[C@@H]3C2)c(F)cc2c(=O)c(C(=O)O)cn(C3CC3)c12 [Moxifloxacin Hydrochloride] |  | 1 | 0 |  | Quadrant (FIG. 5b) [1, 12]: Q4; inhibition at 10 µM [3, 13]: 14%; inhibition at 10 µM [5, 14]: 7% |
| Sc1ncnc2nc[nH]c12 [Mercaptopurine] |  | 0 | 0 |  | Quadrant (FIG. 5b) [1, 12]: Q4; inhibition at 10 µM [3, 13]: 9%; inhibition at 10 µM [5, 14]: 2% |
| CCCCCCCCCCCCCCCC(=O)OC[C@H](O)[C@H]1OC(=O)C(O)=C1O [Ascorbyl Palmitate] |  | 1 | 0 |  | Quadrant (FIG. 5b) ([1]; quadrant by fibrin and LPS inhibition, HTS at 10 μM): Q4; inhibition at 10 µM [3, 7]: 20%; inhibition at 10 µM [5, 8]: 38% |
